The test system of test [1] is cell surface calreticulin on UT-SCC-24A cells. In words: Flow cytometric detection of cell surface calreticulin. Type of test: cell-based, human. The following applies: 24 h, cisplatin 50 µM, MPMs 5-20 µM, vs untreated. Here is the method: This procedure was based on a published method ([Liu et al., 2020]), but was performed with some modifications. Briefly, HSC-3 and UT-SCC-24A cells were seeded, 300,000 cells/well, in 6-well plates and left to adhere overnight. The media was then removed and replaced by 2 ml complete DMEM/F-12 containing 5, 7.5, 10 or 20 µM of MPM-2:0, MPM-6:0, MPM-3:2 or MPM-4:2, or 50 µM cisplatin. Some cells were left untreated. The cells were then incubated for 24 h. Next, the cell supernatants were collected before the cells were trypsinized and spun down with the supernatants. The cells were then washed in PBS before being incubated with the viability dye Zombie Violet (#423114, BioLegend, San Diego, CA, United States) diluted 1:500 in PBS for 20 min. Next, the cells were incubated with an anti-calreticulin antibody (#ab2907, Abcam) diluted 1:100 in FACS buffer (2%BSA in PBS) for 30 min. The cells were then fixed in 4% formaldehyde for 15 min and washed twice in FACS buffer before being incubated with the secondary antibody (#A11034, Thermo Fisher Scientific) diluted 1:250 in FACS buffer for 30 min. The cells were washed in FACS buffer and analyzed on a LSR Fortessa (BD Biosciences) within 1 week. Analyses were performed in FlowJo™ v.10 (https://www.flowjo.com/).

The subject of test [2] is Escherichia coli ATCC 25922. Description: Bacterial minimum inhibitory concentration (broth microdilution). Type of test: cell-based. Conditions: ATCC25922; Escherichia coli ATCC 25922, 48 h, 35 °C, di-TFA salts. As to the method:
(§1) Method for determination of bacterial minimum inhibitory concentration (MIC) Stock solutions of the water-soluble compounds were prepared by dissolving them in ultrapure water (Milli-Q H2O, Millipore, MA, USA). The less water-soluble compounds were first dissolved in 25 - 50 µL 100% DMSO before further dilution with ultrapure water. The DMSO concentration was always less than 1% in the working concentration of each compound. A modified broth microdilution susceptibility test based on the CLSI M07-A9 protocol, [2] was used to determine minimal inhibitory concentrations (MIC). Briefly, the test compounds were two-fold diluted with ultrapure water in polystyrene 96-well flat-bottom microplates (NUNC, Roskilde, Denmark). The bacterial inoculum was diluted to 2.5 - 3 x 10^4 cells/mL in Mueller-Hinton broth (MHB, Difco Laboratories, USA) and added to the different diluted compounds in a ratio of 1:1. Positive control (ciprofloxacin, Sigma-Aldrich, USA), negative control (bacteria + water), and media control (media + water) were included in each experiment. The microplates were incubated for 48 h at 35 °C in an EnVision microplate reader (PerkinElmer, Waltham, MA, USA). The lowest concentration of compounds that caused no bacterial growth, as determined by optical density (OD600) measurements, was defined as the MIC value. All compounds were tested in 3 technical replicates.
(§2) Supplementary Video S1. HSC-3 cells were seeded at 100% confluence and a standard scratch wound migration assay was performed. The cells were imaged every 2 hours for 24 hours. The video

In test [3] the test system is Bacillus subtilis 168. The description is as above. Type of test: cell-based. Conditions: Bacillus subtilis 168, 48 h, 35 °C, di-TFA salts. As to the method:
as §1, §2

Test [4] relates to Pseudomonas aeruginosa ATCC 27853. The description is as above. The following applies: ATCC27853; Pseudomonas aeruginosa ATCC 27853, 48 h, 35 °C, di-TFA salts. Type of test: cell-based. Here is the method: as §1, §2
Test [5] relates to Staphylococcus aureus ATCC 9144. The test is described as above. The following applies: ATCC9144; Staphylococcus aureus ATCC 9144, 48 h, 35 °C, di-TFA salts. Type of test: cell-based. As to the method: as §1, §2
In test [6] the test system is HSC-3 cells. Description: Scratch wound invasion assay (myogel-collagen). Conditions: HSC-3, 10 µM, 24 h; control cells approximately 24 h. Type of test: cell-based, human. Here is the method:
(§3) Two Incucyte image lock 96-well plates (#4379, Sartorius) were coated with 50 µl myogel (0.5 mg/ml) per well. The next day, the media remaining in the wells was removed before HSC-3 cells were seeded at a density of 25,000 cells/well in 100 µl. The cells were left to adhere, and the following day, a scratch was made in the middle of each well using the Incucyte 96-pin WoundMaker tool (Sartorius). The wells were then washed once with media. For the migration assay, the media in each well was then replaced with 100 µl of media containing 0.1, 1 or 10 µM of MPM-2:0 or MPM-4:2. For the invasion assay, the media was replaced by 50 µl of a gel consisting of serum-free media, myogel (2.4 mg/ml), type I rat tail collagen (0.8 mg/ml, Corning, NY, USA) and 0.1, 1 or 10 µM of MPM-2:0 or MPM-4:2. The plate was incubated at 37°C for 1 h to let the gel solidify. Next, 100 µl of media, also containing 0.1, 1 or 10 µM of MPM-2:0 or MPM-4:2 was added on top of the gel. Both the migration and invasion plates were placed in the Incucyte S3 (Sartorius) and imaged at ×10 magnification every 2 hours for 24 h in total. The Incucyte software was used to analyze the relative wound density.

Test [7] has as its system HSC-3 cells. In words: Scratch wound migration assay. Type of test: cell-based, human. The following applies: for wound closure in migration assay (in words): HSC-3, 10 µM, 24 h; for wound closing at the lower concentrations (in words): HSC-3, 0.1 or 1 µM, text does not separate migration and invasion. As to the method: as §3

Bounds are passed on as bounds.

Take `N.N.[Cl][Pt][Cl]` [Cisplatin, cisplatin, reference compound]: in test [1], the “cell surface expression of calreticulin (in words)” value is “did not induce any cell surface expression of calreticulin”.
As to `CN(C)CCCCN1C(=O)N(CCCCN(C)C)C(=O)C(CCCc2ccccc2)(CCCc2ccccc2)C1=O` [MPM-4:2], the MIC in test [2] was 32 µg/mL; in test [3], 16 µg/mL; in test [4], greater than 64 µg/mL; in test [5] it was 64 µg/mL. Moreover, the “wound closure in invasion assay (in words)” value in test [6] is reported as “never managed to close the wound”. The “wound closure in migration assay (in words)” value in test [7] is recorded as “required more time to close the wound”. Besides, the “wound closing at the lower concentrations (in words)” value in test [7] is on record as “trend towards faster wound closing”.
With `NCCN1C(=O)N(CCN)C(=O)C(CCCc2ccccc2)(CCCc2ccccc2)C1=O` [MPM-2:0], the MIC in test [2] came to 16 µg/mL; in test [3], 8 µg/mL; in test [4], 16 µg/mL; in test [5] it was 8 µg/mL. In addition, in test [6], the “wound closure in invasion assay (in words)” value is reported as “induced cell death so quickly that it was not possible to study the effect on migration or invasion”. Further, in test [7], the “wound closure in migration assay (in words)” value was “induced cell death so quickly that it was not possible to study the effect on migration or invasion”. For the same compound, in test [7], the “wound closing at the lower concentrations (in words)” value is recorded as “trend towards faster wound closing”.
For the compound `NCCCCCCN1C(=O)N(CCCCCCN)C(=O)C(CCCc2ccccc2)(CCCc2ccccc2)C1=O` [MPM-6:0], the MIC in test [2] worked out at 8 µg/mL; in test [3], 2 µg/mL; in test [4], 8 µg/mL; in test [5] it was 4 µg/mL. In test [1], the “cell surface expression of calreticulin (in words)” value is “statistically significant levels of cell surface calreticulin”.
Take `CN(C)CCCN1C(=O)N(CCCN(C)C)C(=O)C(CCCc2ccccc2)(CCCc2ccccc2)C1=O` [MPM-3:2]: the MIC in test [2] is 32 µg/mL; in test [3] it was 16 µg/mL; in test [4], greater than 64 µg/mL; in test [5], greater than 64 µg/mL.

The values are drawn from publication PMC10098121, “Amphipathic barbiturates as marine product mimics with cytolytic and immunogenic effects on head and neck squamous cell carcinoma cell lines” (Frontiers in Pharmacology, 2023).
